Structures can show the parent of a compound that is named as a salt.
Molecular target: T1, DPP-IV from porcine kidneys (Sus scrofa, UniProt P22411)
T1 construct: DPP-IV from porcine kidneys (Sigma, Munich); purchased Sigma, Munich; host or cells: porcine kidney tissue
Test: Measurement of the DPP-IV activity (fluorimetric, H-Ala-Pro-AFC substrate)
Type: biochemical
Settings: substrate H-Ala-Pro-AFC 15 μM, Tris/HCl pH 7.4, room temperature
Method: Measurement of the DPP-IV Activity:
DPP-IV from porcine kidneys (Sigma, Munich)
H-Ala-Pro-AFC (Bachem, Weil am Rhein)
DPP-IV (1 mU/ml, end concentration)
H-Ala-Pro-AFC (15 μm end concentration)
in Tris/HCl (40 mM, pH 7.4), total volume 0.2 ml
The reaction was performed at room temperature for different periods (typically 10 minutes) and stopped at the end of the reaction by adding 20 μl of ZnCl2 (1 M). The conversion of H-Ala-Pro-AFC was determined fluorimetrically by measuring the emission at 535 nm on excitation at 405 nm. In the case of addition of inhibitors, the buffer volume added was adjusted such that a total volume of the test mixture of 200 μl maintained.
% inhibition at a fixed concentration was calculated as follows: (1-enzyme activityinhibited reaction/enzyme activityuninhibited reaction)×100
IC50 values for inhibitors were determined by varying the inhibitor concentrations in the case of the specified substrate concentration of 15 μM. Ki and Km values were determined by corresponding variation of substrate and inhibitor concentration as described (Dixon, M. and Webb, E. C. (1979) Enzymes, third edition, pp. 47-206, Academic Press). The values for Km, IC50 and Ki were calculated using a commercially available software package (Leatherbarrow, R. J. (1992) GraFit Version 3.0, Erithacus Software Ltd. Staines, U.K.).

T1 sequence (P22411 whole entry): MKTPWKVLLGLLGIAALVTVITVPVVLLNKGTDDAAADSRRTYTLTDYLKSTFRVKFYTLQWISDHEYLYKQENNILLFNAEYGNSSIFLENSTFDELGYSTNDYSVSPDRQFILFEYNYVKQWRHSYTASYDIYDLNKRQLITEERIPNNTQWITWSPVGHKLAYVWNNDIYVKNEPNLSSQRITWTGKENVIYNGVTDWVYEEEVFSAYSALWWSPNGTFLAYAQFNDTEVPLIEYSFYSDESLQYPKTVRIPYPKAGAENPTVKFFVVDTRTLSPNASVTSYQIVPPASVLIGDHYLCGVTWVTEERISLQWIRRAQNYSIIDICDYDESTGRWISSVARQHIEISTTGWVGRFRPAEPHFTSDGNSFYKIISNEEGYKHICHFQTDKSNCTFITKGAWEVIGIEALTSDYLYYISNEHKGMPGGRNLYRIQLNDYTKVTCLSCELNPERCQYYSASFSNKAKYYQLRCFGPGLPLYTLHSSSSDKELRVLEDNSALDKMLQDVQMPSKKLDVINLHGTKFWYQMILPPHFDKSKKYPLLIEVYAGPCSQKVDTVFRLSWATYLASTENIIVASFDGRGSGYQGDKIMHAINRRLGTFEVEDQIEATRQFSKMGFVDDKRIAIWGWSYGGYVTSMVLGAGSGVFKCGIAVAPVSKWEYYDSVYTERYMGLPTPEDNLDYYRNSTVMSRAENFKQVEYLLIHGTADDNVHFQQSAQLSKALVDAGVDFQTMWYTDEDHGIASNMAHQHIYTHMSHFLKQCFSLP

IC50 | SMILES
2700 nM | CC(C)=CCn1c(N2CCC[C@@H](N)C2)nc2ccc(NC(=O)Cc3ccccc3)cc21 [Example 2]
2500 nM | CC(C)=CCn1c(N2CCC[C@@H](N)C2)nc2ccc(NC(=O)c3ccccc3)cc21 [Example 1, R—N-[2-(3-Aminopiperidin-1-yl)-1-(3-methylbut-2-enyl)-1H-benzimidazol-6-yl]-benzamide trifluoroacetic acid salt]
